Assay results from patent US20250388604A1, “Compounds and Their Use as PDE4 Activators” (Mironid Limited, priority 2022, published 2025).

These molecules were tested on m-IMCD3 cells (assay: Inhibition of PGE2-stimulated in vitro cyst formation in m-IMCD3 cells). Conditions: Mus musculus, mIMCD3, 144 h, 3 μM; mean cyst area, 100% for (DMSO + PGE2) and 0% for DMSO control; 6 days of culture; read-out: % Cyst area after incubation with 3 μM test compound.
Type: cell-based, mouse
Method in brief: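 m-IMCD3 cells embedded in collagen I/Matrigel 3D culture; 18–24 h after plating, compound (0.1% DMSO final) plus PGE2 (100 nM final) added, replenished after 2 or 3 days. After 6 days, z-stack imaging gave mean cyst area, normalized to DMSO+PGE2 (100%) and DMSO (0%).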

SMILES	activity at 3 µM [%]
CC(OC1CCCC1)C(=O)N1CCc2nc(N3C4CCC3CNC4)sc2C1 (stereo not shown) [Example 169, 1-(2-(3,8-diazabicyclo[3.2.1]octan-8-yl)-6,7-dihydrothiazolo[5,4-c]pyridin-5(4H)-yl)-2-(cyclopentyloxy)propan-1-one]	-9
O=C([C@@H](O)C1CCCC1)N1CCc2nc(N3C4CCC3CNC4)sc2C1 [Example 170, (2S)-1-(2-(3,8-diazabicyclo[3.2.1]octan-8-yl)-6,7-dihydrothiazolo[5,4-c]pyridin-5(4H)-yl)-2-cyclopentyl-2-hydroxyethan-1-one]	5
COc1cccc(OC)c1OCC(=O)N1CCc2nc(N3C4CCC3CNC4)sc2C1 [Example 172, 1-(2-(3,8-diazabicyclo[3.2.1]octan-8-yl)-6,7-dihydrothiazolo[5,4-c]pyridin-5(4H)-yl)-2-(2,6-dimethoxyphenoxy)ethan-1-one]	10
O=C(COc1ccccc1C(F)F)N1CCc2nc(N3C4CCC3CNC4)sc2C1 [Example 173, 1-(2-(3,8-diazabicyclo[3.2.1]octan-8-yl)-6,7-dihydrothiazolo[5,4-c]pyridin-5(4H)-yl)-2-(2-(difluoromethyl)phenoxy)ethan-1-one]	-2
CCC(C)(C)CC(=O)N1CCc2nc(N3C4CCC3CNC4)sc2C1 [Example 174, 1-(2-(3,8-diazabicyclo[3.2.1]octan-8-yl)-6,7-dihydrothiazolo[5,4-c]pyridin-5(4H)-yl)-3,3-dimethylpentan-1-one]	3
CC(C)(CC(=O)N1CCc2nc(N3C4CCC3CNC4)sc2C1)C(F)F [Example 175, 1-(2-(3,8-diazabicyclo[3.2.1]octan-8-yl)-6,7-dihydrothiazolo[5,4-c]pyridin-5(4H)-yl)-4,4-difluoro-3,3-dimethylbutan-1-one]	-5
CC(C)(C)[C@@H](O)C(=O)N1CCc2nc(N3C4CCC3CNC4)sc2C1 [Example 176, (2R)-1-(2-(3,8-diazabicyclo[3.2.1]octan-8-yl)-6,7-dihydrothiazolo[5,4-c]pyridin-5(4H)-yl)-2-hydroxy-3,3-dimethylbutan-1-one]	12
O=C([C@H](O)C1CCCCC1)N1CCc2nc(N3C4CCC3CNC4)sc2C1 [Example 177, (2R)-1-(2-(3,8-diazabicyclo[3.2.1]octan-8-yl)-6,7-dihydrothiazolo[5,4-c]pyridin-5(4H)-yl)-2-cyclohexyl-2-hydroxyethan-1-one]	-2
CC(C)(C#N)CC(=O)N1CCc2nc(N3C4CCC3CNC4)sc2C1 [Example 178, 4-(2-(3,8-diazabicyclo[3.2.1]octan-8-yl)-6,7-dihydrothiazolo[5,4-c]pyridin-5(4H)-yl)-2,2-dimethyl-4-oxobutanenitrile]	24
O=C(C1Cc2ccccc2O1)N1CCc2nc(N3C4CCC3CNC4)sc2C1 (stereo not shown) [Example 179, (2-(3,8-diazabicyclo[3.2.1]octan-8-yl)-6,7-dihydrothiazolo[5,4-c]pyridin-5(4H)-yl)(2,3-dihydrobenzofuran-2-yl)methanone]	2
O=C(C1COc2ccccc2O1)N1CCc2nc(N3C4CCC3CNC4)sc2C1 (stereo not shown) [Example 180, (2-(3,8-diazabicyclo[3.2.1]octan-8-yl)-6,7-dihydrothiazolo[5,4-c]pyridin-5(4H)-yl)(2,3-dihydrobenzo[b][1,4]dioxin-2-yl)methanone]	2
O=C(C1CCc2ccccc2O1)N1CCc2nc(N3C4CCC3CNC4)sc2C1 (stereo not shown) [Example 181, (2-(3,8-diazabicyclo[3.2.1]octan-8-yl)-6,7-dihydrothiazolo[5,4-c]pyridin-5(4H)-yl)(chroman-2-yl)methanone]	5
O=C(C1COc2ccccc2C1)N1CCc2nc(N3C4CCC3CNC4)sc2C1 (stereo not shown) [Example 182, (2-(3,8-diazabicyclo[3.2.1]octan-8-yl)-6,7-dihydrothiazolo[5,4-c]pyridin-5(4H)-yl)(chroman-3-yl)methanone]	1
O=C(C1Cc2ccccc2CO1)N1CCc2nc(N3C4CCC3CNC4)sc2C1 (stereo not shown) [Example 183, (2-(3,8-diazabicyclo[3.2.1]octan-8-yl)-6,7-dihydrothiazolo[5,4-c]pyridin-5(4H)-yl)(isochroman-3-yl)methanone]	0
O=C(c1cc2ccccc2o1)N1CCc2nc(N3C4CCC3CNC4)sc2C1 [Example 185, (2-(3,8-diazabicyclo[3.2.1]octan-8-yl)-6,7-dihydrothiazolo[5,4-c]pyridin-5(4H)-yl)(benzofuran-2-yl)methanone]	-2
O=C(c1nccc2ccccc12)N1CCc2nc(N3C4CCC3CNC4)sc2C1 [Example 186, (2-(3,8-diazabicyclo[3.2.1]octan-8-yl)-6,7-dihydrothiazolo[5,4-c]pyridin-5(4H)-yl)(isoquinolin-1-yl)methanone]	0
O=C(c1coc2ccccc12)N1CCc2nc(N3C4CCC3CNC4)sc2C1 [Example 187, (2-(3,8-diazabicyclo[3.2.1]octan-8-yl)-6,7-dihydrothiazolo[5,4-c]pyridin-5(4H)-yl)(benzofuran-3-yl)methanone]	-8
O=C(c1cc2ccccc2[nH]1)N1CCc2nc(N3C4CCC3CNC4)sc2C1 [Example 188, (2-(3,8-diazabicyclo[3.2.1]octan-8-yl)-6,7-dihydrothiazolo[5,4-c]pyridin-5(4H)-yl)(1H-indol-2-yl)methanone]	3
Cn1c(C(=O)N2CCc3nc(N4C5CCC4CNC5)sc3C2)cc2ccccc21 [Example 189, (2-(3,8-diazabicyclo[3.2.1]octan-8-yl)-6,7-dihydrothiazolo[5,4-c]pyridin-5(4H)-yl)(1-methyl-1H-indol-2-yl)methanone]	-1
O=C(c1nc2ccccc2o1)N1CCc2nc(N3C4CCC3CNC4)sc2C1 [Example 190, (2-(3,8-diazabicyclo[3.2.1]octan-8-yl)-6,7-dihydrothiazolo[5,4-c]pyridin-5(4H)-yl)(benzo[d]oxazol-2-yl)methanone]	1
O=C(c1cc2ccccc2cn1)N1CCc2nc(N3C4CCC3CNC4)sc2C1 [Example 192, (2-(3,8-diazabicyclo[3.2.1]octan-8-yl)-6,7-dihydrothiazolo[5,4-c]pyridin-5(4H)-yl)(isoquinolin-3-yl)methanone]	1
O=C(c1ccccc1)N1CCc2nc(N3C4CCC3CNC4)sc2C1 [Example 193, (2-(3,8-diazabicyclo[3.2.1]octan-8-yl)-6,7-dihydrothiazolo[5,4-c]pyridin-5(4H)-yl)(phenyl)methanone]	-1
Cc1ccccc1C(=O)N1CCc2nc(N3C4CCC3CNC4)sc2C1 [Example 194, (2-(3,8-diazabicyclo[3.2.1]octan-8-yl)-6,7-dihydrothiazolo[5,4-c]pyridin-5(4H)-yl)(o-tolyl)methanone]	1
Cc1cccc(C(=O)N2CCc3nc(N4C5CCC4CNC5)sc3C2)c1 [Example 195, (2-(3,8-diazabicyclo[3.2.1]octan-8-yl)-6,7-dihydrothiazolo[5,4-c]pyridin-5(4H)-yl)(m-tolyl)methanone]	1
Cc1ccc(C(=O)N2CCc3nc(N4C5CCC4CNC5)sc3C2)cc1 [Example 196, (2-(3,8-diazabicyclo[3.2.1]octan-8-yl)-6,7-dihydrothiazolo[5,4-c]pyridin-5(4H)-yl)(p-tolyl)methanone]	-1
